# Measured values taken from patent US9604989B2, “Imidazopyridazines as Akt kinase inhibitors” (Bayer Intellectual Property GmbH, priority 2011, dated 2017).
# Structures can show the parent of a compound that is named as a salt.
# Assays:
# phospho-AKT at S473 = assay: Cellular p-AKT1/2/3-S473 assay in KPL-4 cells; format: cell-based; conditions: Homo sapiens, KPL4; KPL-4 breast tumour cell line, compound treatment 2 hours; read-out: pAKT-S473 median IC50
# Experimental: The molecular mechanism of action was investigated in a set of experiments to assess the inhibition of the PI3K-AKT-mTOR pathway in responsive cell lines such as KPL-4 breast tumour cell line (PIK3CA^H1047R, HER2^O/E and hormone independent). The phospho-substrates of PI3K-AKT-mTOR axis were used as the read-outs to reflect pathway inhibition. Cells were seeded at 60-80% confluency per well in 96-well cell culture plates. After overnight incubation at 37° C. 5% CO2, cells were treated with compounds and vehicle at 37° C. for 2 hours. […] All measurements where at least done in duplicates and confirmed by independent repetition.
# Alternatively pAKT-S473 was measured using the “Akt Duplex” of the MULTI-SPOT® Assay System (Fa. Meso Scale Discovery, Cat#N41100B-1) following manufacturers instructions. Each assay used 20 μg of protein extract and measured total AKT and p-AKT content simultaneously in one well. All measurements where at least done in duplicates and confirmed by independent repetition. Values for P-AKT are expressed as percentage of P-AKT level compared to total-AKT content of the extracts.
# [1] = test system: KPL-4 breast cancer cell line; assay: Tumor cell proliferation assay (CellTiter-Glo), KPL-4; format: cell-based; conditions: Homo sapiens, KPL4, 72 h drug exposure, read-out: KLP-4 median IC50
# [2] = test system: MCF-7 breast tumour cell line; assay: Tumor cell proliferation assay (CellTiter-Glo), MCF-7; format: cell-based; conditions: Homo sapiens, MCF7, 72 h drug exposure, read-out: MCF-7 median IC50
# Experimental: Biological Assay 4.0: Tumor Cell Proliferation Assays
# Compounds were tested in a cell-based assay that measures the capacity of the compounds to inhibit tumour cell proliferation following a 72 h drug exposure. Cell viability is determined using CellTiter-Glow® (CTG, Promega, cat#G7571/2/3). The CellTiter-Glo® Luminescent Cell Viability Assay is a homogeneous method to determine the number of viable cells in culture.
# Detection is based on using the luciferase reaction to measure the amount of ATP from viable cells. The amount of ATP in cells correlates with cell viability. Within minutes after a loss of membrane integrity, cells lose the ability to synthesize ATP, and endogenous ATPases destroy any remaining ATP; thus the levels of ATP fall precipitously.
# For each cell line assayed, cells were plated onto a separate plate for determination of fluorescence at t=0 hour and t=72 hour time points. Following overnight incubation at 37° C., chemiluminescence values for the t=0 samples were determined after adding 10 μl medium and 100 μl CTG solution according to manufacture protocol. Plates for the t=72 hour time points were treated with compounds diluted into growth medium at ten times final concentration added in 10 μL to the cell culture plate. Cells were then incubated for 72 hours at 37° C. Chemiluminescence values for the t=72 hour samples were determined. […] Experiments were controlled using a reference compound as standard.
# p-4E-BP1 at T70 = assay: Cellular p-4E-BP1-T70 assay in KPL-4 cells; format: cell-based; conditions: Homo sapiens, KPL4; KPL-4 breast tumour cell line, compound treatment 2 hours; read-out: P4EBP1-T70 median IC50
# [3] = biological target: His-tagged human recombinant kinase full-length Akt1 (Homo sapiens (Human), UniProt P31749); assay: Akt1 kinase assay (Akt1 TR-FRET assay); format: biochemical; conditions: 10 μM ATP, 60 min at 22° C., read-out: Akt1 median IC50
# Text: Biological Assay 1.0: Akt1 Kinase Assay
# Akt1 inhibitory activity of compounds of the present invention was quantified employing the Akt1 TR-FRET assay as described in the following paragraphs.
# His-tagged human recombinant kinase full-length Akt1 expressed in insect cells was purchased form Invitrogen (part number PV 3599). As substrate for the kinase reaction the biotinylated peptide biotin-Ahx-[sequence] (C-terminus in amide form) was used which can be purchased e.g. from the company Biosynthan GmbH (Berlin-Buch, Germany).
# For the assay 50 nl of a 100 fold concentrated solution of the test compound in DMSO was pipetted into a black low volume 384 well microtiter plate (Greiner Bio-One, Frickenhausen, Germany), 2 μl of a solution of Akt1 in assay buffer [50 mM TRIS/HCl pH 7.5, 5 mM MgCl2, 1 mM dithiothreitol, 0.02% (v/v) Triton X-100 (Sigma)] were added and the mixture was incubated for 15 min at 22° C. to allow pre-binding of the test compounds to the enzyme before the start of the kinase reaction. Then the kinase reaction was started by the addition of 3 μl of a solution of adenosine-tri-phosphate (ATP, 16.7 μM=>final conc. in the 5 μl assay volume is 10 μM) and substrate (1.67 μM=>final conc. in the 5 μl assay volume is 1 μM) in assay buffer and the resulting mixture was incubated for a reaction time of 60 min at 22° C. The concentration of Akt1 in the assay was adjusted depending of the activity of the enzyme lot and was chosen appropriate to have the assay in the linear range, typical enzyme concentrations were in the range of about 0.05 ng/μl (final conc. in the 5 μl assay volume). The reaction was stopped by the addition of 5 μl of a solution of HTRF detection reagents (200 nM streptavidine-XL665 [Cisbio] and 1.5 nM anti-phosho-Serine antibody [Millipore, cat. #35-001] and 0.75 nM LANCE Eu-W 1024 labeled anti-mouse IgG antibody [Perkin Elmer]) in an aqueous EDTA-solution (100 mM EDTA, 0.1% (w/v) bovine serum albumin in 50 mM HEPES/NaOH pH 7.5). The resulting mixture was incubated 1 h at 22° C. to allow the binding of the biotinylated phosphorylated peptide to the streptavidine-XL665 and the antibodies. Subsequently the amount of phosphorylated substrate was evaluated by measurement of the resonance energy transfer from the anti-mouse-IgG-Eu-Chelate to the streptavidine-XL665. Therefore, the fluorescence emissions at 620 nm and 665 nm after excitation at 350 nm was measured in a HTRF reader, e.g. a Rubystar (BMG Labtechnologies, Offenburg, Germany) or a Viewlux (Perkin-Elmer). The ratio of the emissions at 665 nm and at 622 nm was taken as the measure for the amount of phosphorylated substrate.
# [4] = biological target: His-tagged human recombinant kinase full-length Akt2 (Homo sapiens (Human), UniProt P31751); assay: Akt2 kinase assay (Akt2 TR-FRET assay); format: biochemical; conditions: 10 μM ATP, 60 min at 22° C., read-out: Akt2 median IC50
# Sequence of His-tagged human recombinant kinase full-length Akt2 (P31751 whole entry): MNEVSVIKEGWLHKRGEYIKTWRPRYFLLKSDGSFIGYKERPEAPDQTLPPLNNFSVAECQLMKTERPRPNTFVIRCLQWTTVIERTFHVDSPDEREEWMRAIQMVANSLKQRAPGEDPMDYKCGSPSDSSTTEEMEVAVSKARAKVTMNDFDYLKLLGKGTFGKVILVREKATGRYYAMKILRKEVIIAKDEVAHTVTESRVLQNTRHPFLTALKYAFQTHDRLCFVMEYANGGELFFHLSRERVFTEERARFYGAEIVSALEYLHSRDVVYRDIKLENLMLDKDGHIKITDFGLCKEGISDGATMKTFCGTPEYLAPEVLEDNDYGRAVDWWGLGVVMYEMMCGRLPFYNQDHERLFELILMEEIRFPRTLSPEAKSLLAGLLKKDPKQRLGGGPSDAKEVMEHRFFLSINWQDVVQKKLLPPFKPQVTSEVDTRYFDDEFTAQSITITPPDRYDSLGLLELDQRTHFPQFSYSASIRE
# Text: Akt2 inhibitory activity of compounds of the present invention was quantified employing the Akt2 TR-FRET assay as described in the following paragraphs.
# His-tagged human recombinant kinase full-length Akt2 expressed in insect cells and activated by PDK1 was purchased form Invitrogen (part number PV 3975). As substrate for the kinase reaction the biotinylated peptide biotin-Ahx-[sequence] (C-terminus in amide form) was used which can be purchased e.g. from the company Biosynthan GmbH (Berlin-Buch, Germany). For the assay 50 nl of a 100 fold concentrated solution of the test compound in DMSO was pipetted into a black low volume 384 well microtiter plate (Greiner Bio-One, Frickenhausen, Germany), 2 μl of a solution of Akt2 in assay buffer [50 mM TRIS/HCl pH 7.5, 5 mM MgCl2, 1 mM dithiothreitol, 0.02% (v/v) Triton X-100 (Sigma)] were added and the mixture was incubated for 15 min at 22° C. to allow pre-binding of the test compounds to the enzyme before the start of the kinase reaction. Then the kinase reaction was started by the addition of 3 μl of a solution of adenosine-tri-phosphate (ATP, 16.7 μM=>final conc. in the 5 μl assay volume is 10 μM) and substrate (1.67 μM=>final conc. in the 5 μl assay volume is 1 μM) in assay buffer and the resulting mixture was incubated for a reaction time of 60 min at 22° C. The concentration of Akt2 in the assay was adjusted depending of the activity of the enzyme lot and was chosen appropriate to have the assay in the linear range, typical enzyme concentrations were in the range of about 0.2 ng/μl (final conc. in the 5 μl assay volume). The reaction was stopped by the addition of 5 μl of a solution of HTRF detection reagents (200 nM streptavidine-XL665 [Cisbio] and 1.5 nM anti-phosho-Serine antibody [Millipore, cat. #35-001] and 0.75 nM LANCE Eu-W 1024 labeled anti-mouse IgG antibody [Perkin Elmer]) in an aqueous EDTA-solution (100 mM EDTA, 0.1% (w/v) bovine serum albumin in 50 mM HEPES/NaOH pH 7.5). The resulting mixture was incubated 1 h at 22° C. to allow the binding of the biotinylated phosphorylated peptide to the streptavidine-XL665 and the antibodies. Subsequently the amount of phosphorylated substrate was evaluated by measurement of the resonance energy transfer from the anti-mouse-IgG-Eu-Chelate to the streptavidine-XL665. Therefore, the fluorescence emissions at 620 nm and 665 nm after excitation at 350 nm was measured in a TR-FRET reader, e.g. a Rubystar (BMG Labtechnologies, Offenburg, Germany) or a Viewlux (Perkin-Elmer). The ratio of the emissions at 665 nm and at 622 nm was taken as the measure for the amount of phosphorylated substrate.
# Sequence of His-tagged human recombinant kinase full-length Akt1 (P31749 whole entry): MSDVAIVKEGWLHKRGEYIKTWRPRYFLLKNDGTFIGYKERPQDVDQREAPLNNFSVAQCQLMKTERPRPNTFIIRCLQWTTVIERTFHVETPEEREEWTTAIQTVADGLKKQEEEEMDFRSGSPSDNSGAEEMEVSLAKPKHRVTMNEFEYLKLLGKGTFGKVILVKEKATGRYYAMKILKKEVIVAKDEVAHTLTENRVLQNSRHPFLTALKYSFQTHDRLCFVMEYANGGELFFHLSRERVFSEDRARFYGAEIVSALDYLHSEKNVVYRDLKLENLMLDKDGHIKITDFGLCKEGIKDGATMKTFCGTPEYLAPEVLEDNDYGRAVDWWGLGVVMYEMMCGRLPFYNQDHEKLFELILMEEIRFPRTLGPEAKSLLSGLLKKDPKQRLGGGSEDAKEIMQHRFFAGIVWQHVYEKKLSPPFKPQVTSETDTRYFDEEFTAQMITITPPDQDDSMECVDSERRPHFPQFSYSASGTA
SMILES,IC50 (phospho-AKT at S473) [µM],IC50 [1] [µM],IC50 [2] [µM],IC50 (p-4E-BP1 at T70) [µM],IC50 [3] [µM],IC50 [4] [µM]
"NC1(c2ccc(-c3nc4ccc(-c5ccc(F)cc5)nn4c3-c3ccccc3)cc2)CCC1 [Example 33, 1-{4-[6-(4-Fluorophenyl)-3-phenylimidazo[1,2-b]pyridazin-2-yl]phenyl}cyclobutanamine]",2.9,–,–,–,0.69,–
"CN(C)C(=O)c1ccc2nc(-c3ccc(C4(N)CCC4)cc3)c(-c3ccccc3)n2n1 [Example 69, 2-[4-(1-Aminocyclobutyl)phenyl]-N,N-dimethyl-3-phenylimidazo[1,2-b]pyridazine-6-carboxamide]",0.25,10,1.5,4.4,0.31,–
"CCOc1nn2c(-c3ccccc3)c(-c3ccc(C4(N)CCC4)cc3)nc2c(C)c1C [Example 55, 1-[4-(6-Ethoxy-7,8-dimethyl-3-phenylimidazo[1,2-b]pyridazin-2-yl)phenyl]-cyclobutanamine]",0.68,2,1.9,1.8,–,–
"NC1(c2ccc(-c3nc4ccc(C(=O)NCCO)nn4c3-c3ccccc3)cc2)CCC1 [Example 70, 2-[4-(1-Aminocyclobutyl)phenyl]-N-(2-hydroxyethyl)-3-phenylimidazo[1,2-b]pyridazine-6-carboxamide]",0.0057,2.6,0.94,2.4,–,0.11
"NC1(c2ccc(-c3nc4c(O)ccnn4c3-c3ccccc3)cc2)CCC1 [Example 32, 2-[4-(1-Aminocyclobutyl)phenyl]-3-phenylimidazo[1,2-b]pyridazin-8-ol]",0.16,–,–,2.2,–,–
"NC1(c2ccc(-c3nc4ccc(C(F)(F)F)nn4c3-c3ccccc3)cc2)CCC1 [Example 3, 1-{4-[3-Phenyl-6-(trifluoromethyl)imidazo[1,2-b]pyridazin-2-yl]phenyl}-cyclobutanamine]",0.36,1.7,1.8,4.5,–,–
"NC(=O)c1cc(C(N)=O)c2nc(-c3ccc(C4(N)CCC4)cc3)c(-c3ccccc3)n2n1 [Example 34, 2-[4-(1-Aminocyclobutyl)phenyl]-3-phenylimidazo[1,2-b]pyridazine-6,8-dicarboxamide]",0.0031,1.1,0.33,0.15,–,0.014
"NC(=O)c1cc(-c2cc[nH]n2)c2nc(-c3ccc(C4(N)CCC4)cc3)c(-c3ccccc3)n2n1 [Example 60, 2-[4-(1-Aminocyclobutyl)phenyl]-3-phenyl-8-(1H-pyrazol-3-yl)imidazo[1,2-b]pyridazine-6-carboxamide]",0.001,1.5,0.073,8.1,0.0072,–
"CCCc1ccnn2c(-c3ccccc3)c(-c3ccc(C4(N)CCC4)cc3)nc12 [Example 47, 1-[4-(3-Phenyl-8-propylimidazo[1,2-b]pyridazin-2-yl)phenyl]cyclobutanamine]",0.14,1.7,1.1,0.096,0.22,–
"CCOc1cc(C(=O)NC)nn2c(-c3ccccc3)c(-c3ccc(C4(N)CCC4)cc3)nc12 [Example 22, 2-[4-(1-Aminocyclobutyl)phenyl]-8-ethoxy-N-methyl-3-phenylimidazo[1,2-b]pyridazine-6-carboxamide]",0.0003,0.19,0.24,0.023,0.008,–
CS(=O)(=O)c1ccc2nc(-c3ccc(C4(N)CCC4)cc3)c(-c3ccccc3)n2n1 [Example 38],0.02,0.74,0.51,0.53,0.37,–
"CNC(=O)c1cc(OC)c2nc(-c3ccc(C4(N)CCC4)cc3)c(-c3ccccc3)n2n1 [Example 26, 2-[4-(1-Aminocyclobutyl)phenyl]-8-methoxy-N-methyl-3-phenylimidazo[1,2-b]pyridazine-6-carboxamide]",0.0009,1.8,1.8,0.09,–,0.01
NC(=O)c1ccnn2c(-c3ccccc3)c(-c3ccc(C4(N)CCC4)cc3)nc12 [Example 59],0.011,–,–,0.1,–,–
"Nc1ccc2nc(-c3ccc(C4(N)CCC4)cc3)c(-c3ccccc3)n2n1 [Example 35, 2-[4-(1-Aminocyclobutyl)phenyl]-3-phenylimidazo[1,2-b]pyridazin-6-amine]",0.19,6.1,3,1.7,–,1.2
"COC(=O)c1ccnn2c(-c3ccccc3)c(-c3ccc(C4(N)CCC4)cc3)nc12 [Example 31, Methyl 2-[4-(1-aminocyclobutyl)phenyl]-3-phenylimidazo[1,2-b]pyridazine-8-carboxylate]",1.8,8.4,1.4,4.3,–,0.14
"CCc1cc(OC)c2nc(-c3ccc(C4(N)CCC4)cc3)c(-c3ccccc3)n2n1 [Example 13, 1-[4-(6-Ethyl-8-methoxy-3-phenylimidazo[1,2-b]pyridazin-2-yl)phenyl]cyclobutanamine]",–,1.5,1.1,0.66,–,0.042
"NC1(c2ccc(-c3nc4c(-c5ccc(F)cc5)ccnn4c3-c3ccccc3)cc2)CCC1 [Example 44, 1-{4-[8-(4-Fluorophenyl)-3-phenylimidazo[1,2-b]pyridazin-2-yl]phenyl}cyclobutanamine]",0.8,2,–,0.38,–,0.31
"COc1cc(-c2ccnn2C)c2nc(-c3ccc(C4(N)CCC4)cc3)c(-c3ccccc3)n2n1 [Example 74, 1-{4-[6-Methoxy-8-(1-methyl-1H-pyrazol-5-yl)-3-phenylimidazo[1,2-b]pyridazin-2-yl]phenyl}cyclobutanamine]",0.45,2.1,2,–,0.096,–

# Further compounds by falling IC50 (phospho-AKT at S473), results first:
IC50 (phospho-AKT at S473) [µM],IC50 [1] [µM],IC50 [2] [µM],IC50 (p-4E-BP1 at T70) [µM],IC50 [3] [µM],IC50 [4] [µM],SMILES
2,> 10,8.4,6.1,–,–,"NC1(c2ccc(-c3nc4ccc(NC(=O)C(F)(F)F)nn4c3-c3ccccc3)cc2)CCC1 [Example 40, N-{2-[4-(1-Aminocyclobutyl)phenyl]-3-phenylimidazo[1,2-b]pyridazin-6-yl}-2,2,2-trifluoroacetamide]"
0.59,1.8,1.8,1.7,0.0044,–,"COc1cc(-c2cn[nH]c2)c2nc(-c3ccc(C4(N)CCC4)cc3)c(-c3ccccc3)n2n1 [Example 15, 1-{4-[6-Methoxy-3-phenyl-8-(1H-pyrazol-4-yl)imidazo[1,2-b]pyridazin-2-yl]phenyl} cyclobutanamine HCl salt]"
0.43,1.9,1.5,0.3,–,0.085,"NC1(c2ccc(-c3nc4c(C5CC5)cc(Cl)nn4c3-c3ccccc3)cc2)CCC1 [Example 46, 1-[4-(6-Chloro-8-cyclopropyl-3-phenylimidazo [1,2-b]pyridazin-2-yl)phenyl]cyclobutanamine]"
0.2,1.7,1.8,0.5,0.035,–,"NC1(c2ccc(-c3nc4c(-c5ncc[nH]5)cc(Cl)nn4c3-c3ccccc3)cc2)CCC1 [Example 24, 1-{4-[6-Chloro-8-(1H-imidazol-2-yl)-3-phenyl-imidazo[1,2-b]pyridazin-2-yl]phenyl} cyclobutanamine]"
0.096,6.2,6.7,1.6,0.036,–,"CC(=O)c1ccc2nc(-c3ccc(C4(N)CCC4)cc3)c(-c3ccccc3)n2n1 [Example 43, 1-{2-[4-(1-Aminocyclobutyl)phenyl]-3-phenylimidazo[1,2-b]pyridazin-6-yl}ethanone]"
0.052,2,1.8,0.26,0.021,–,"COC(=O)c1cc(OC)c2nc(-c3ccc(C4(N)CCC4)cc3)c(-c3ccccc3)n2n1 [Example 12, Methyl 2-[4-(1-aminocyclobutyl)phenyl]-8-methoxy-3-phenylimidazo[1,2-b]pyridazine-6-carboxylate]"
0.042,1.1,1.3,0.029,–,0.61,"Nc1ccnn2c(-c3ccccc3)c(-c3ccc(C4(N)CCC4)cc3)nc12 [Example 48, 2-[4-(1-Aminocyclobutyl)phenyl]-3-phenylimidazo[1,2-b]pyridazin-8-amine]"
0.026,1.8,1.7,1.6,0.017,–,"CSc1ccc2nc(-c3ccc(C4(N)CCC4)cc3)c(-c3ccccc3)n2n1 [Example 36, 1-{4-[6-(Methylsulfanyl)-3-phenylimidazo[1,2-b]pyridazin-2-yl]phenyl}cyclobutanamine]"
0.017,2.5,0.98,–,–,–,"CCNC(=O)c1ccc2nc(-c3ccc(C4(N)CCC4)cc3)c(-c3ccccc3)n2n1 [Example 66, 2-[4-(1-Aminocyclobutyl)phenyl]-N-ethyl-3-phenylimidazo[1,2-b]pyridazine-6-carboxamide]"
0.001,1.9,1.8,0.0062,–,–,"COCCOc1cc(C(N)=O)nn2c(-c3ccccc3)c(-c3ccc(C4(N)CCC4)cc3)nc12 [Example 28, 2-[4-(1-Aminocyclobutyl)phenyl]-8-(2-methoxy-ethoxy)-3-phenylimidazo[1,2-b]pyridazine-6-carboxamide]"
